One may read the IC50 as the concentration that inhibits the measured activity by half.

In assay [1] the target is T1, human recombinant HDAC1 (Homo sapiens, UniProt Q13547).
T1 construct: purchased Enzo Life Sciences, Inc. BML-SE456
In words: In vitro HDAC enzyme activity inhibition assay, HDAC1 (HDAC Fluorimetric Drug Discovery Kit). It is filed as biochemical. As to conditions: human recombinant HDAC1, Fluor de Lys-SIRT1 substrate 10 μM, 30° C. for 60 minutes. The procedure: (§1) In order to confirm the selectivity of the compounds represented by Chemical Formula I of the present invention to HDAC6 through HDAC1 and HDAC6 enzyme activity inhibition experiments, a comparison experiment was performed using the material that has already been developed as a control group.
(§2) HDAC enzyme activity was measured using the HDAC Fluorimetric Drug Discovery Kit (Enzo Life Sciences, Inc., BML-AK511, 516). For the HDAC1 enzyme activity test, human recombinant HDAC1 (BML-SE456) was used as an enzyme source and Fluor de Lys®-SIRT1 (BNL-KI177) was used as a substrate. After dispensing 5-fold diluted compounds into a 96-well plate, 0.3 μg of enzyme and 10 μM substrate were added to each well of the plate and allowed to react at 30° C. for 60 minutes. Next, Fluor de Lys® Developer II (BML-KI176) was added and reacted for 30 minutes to complete the reaction, and then the fluorescence values (Ex 360, Em 460) were measured using a multi-plate reader (Flexstation 3, Molecular Device). The HDAC6 enzymes were tested using human recombinant HDAC6 (382180) from Calbiochem Inc., according to the same protocol as the HDAC1 enzyme activity test method. With respect to the final result values, respective IC50 values were calculated using GraphPad Prism 4.0 program, and results thereof were summarized in Table 5 below.

For assay [2], the target named is T2, human recombinant HDAC6 (Homo sapiens, UniProt Q9UBN7).
T2 construct: purchased Calbiochem Inc. 382180
T2 sequence (Q9UBN7 1-1215): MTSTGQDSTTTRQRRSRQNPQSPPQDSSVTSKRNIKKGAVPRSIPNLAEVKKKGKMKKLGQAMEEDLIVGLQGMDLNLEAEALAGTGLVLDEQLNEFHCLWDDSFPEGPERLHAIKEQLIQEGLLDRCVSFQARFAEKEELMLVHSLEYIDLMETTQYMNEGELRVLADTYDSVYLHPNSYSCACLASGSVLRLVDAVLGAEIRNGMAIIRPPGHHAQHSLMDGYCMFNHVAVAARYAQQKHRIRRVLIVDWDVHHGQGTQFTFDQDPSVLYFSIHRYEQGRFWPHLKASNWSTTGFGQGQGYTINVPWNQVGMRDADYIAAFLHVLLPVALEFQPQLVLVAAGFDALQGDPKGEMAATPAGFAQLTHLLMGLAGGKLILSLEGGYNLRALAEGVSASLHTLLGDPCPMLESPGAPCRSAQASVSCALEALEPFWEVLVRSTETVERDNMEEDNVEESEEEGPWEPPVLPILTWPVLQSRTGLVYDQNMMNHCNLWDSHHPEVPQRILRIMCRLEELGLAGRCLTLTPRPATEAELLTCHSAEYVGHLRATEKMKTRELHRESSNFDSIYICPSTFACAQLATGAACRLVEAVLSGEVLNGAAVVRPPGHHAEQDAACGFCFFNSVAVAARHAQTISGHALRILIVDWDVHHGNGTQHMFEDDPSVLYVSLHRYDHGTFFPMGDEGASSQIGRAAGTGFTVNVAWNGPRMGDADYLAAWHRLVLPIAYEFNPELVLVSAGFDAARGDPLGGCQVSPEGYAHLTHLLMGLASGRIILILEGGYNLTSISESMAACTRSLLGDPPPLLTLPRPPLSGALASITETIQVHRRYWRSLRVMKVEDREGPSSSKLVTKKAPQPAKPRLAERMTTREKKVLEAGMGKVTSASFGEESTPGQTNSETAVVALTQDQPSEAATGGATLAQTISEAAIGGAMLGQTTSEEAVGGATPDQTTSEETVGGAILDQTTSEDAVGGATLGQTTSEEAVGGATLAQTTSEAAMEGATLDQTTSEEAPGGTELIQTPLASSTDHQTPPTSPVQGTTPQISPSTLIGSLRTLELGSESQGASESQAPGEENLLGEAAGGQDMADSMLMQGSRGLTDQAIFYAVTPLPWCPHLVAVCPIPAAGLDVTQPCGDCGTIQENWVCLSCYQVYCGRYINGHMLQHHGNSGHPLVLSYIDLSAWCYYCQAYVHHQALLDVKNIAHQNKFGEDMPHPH
Nature of the assay: In vitro HDAC enzyme activity inhibition assay, HDAC6 (HDAC Fluorimetric Drug Discovery Kit). It is filed as biochemical. As to conditions: for HDAC6 Selectivity (fold): HDAC6 versus HDAC1; for IC50: human recombinant HDAC6, same protocol as the HDAC1 test. The method, then: as §1, §2

T1 sequence (Q13547 whole entry): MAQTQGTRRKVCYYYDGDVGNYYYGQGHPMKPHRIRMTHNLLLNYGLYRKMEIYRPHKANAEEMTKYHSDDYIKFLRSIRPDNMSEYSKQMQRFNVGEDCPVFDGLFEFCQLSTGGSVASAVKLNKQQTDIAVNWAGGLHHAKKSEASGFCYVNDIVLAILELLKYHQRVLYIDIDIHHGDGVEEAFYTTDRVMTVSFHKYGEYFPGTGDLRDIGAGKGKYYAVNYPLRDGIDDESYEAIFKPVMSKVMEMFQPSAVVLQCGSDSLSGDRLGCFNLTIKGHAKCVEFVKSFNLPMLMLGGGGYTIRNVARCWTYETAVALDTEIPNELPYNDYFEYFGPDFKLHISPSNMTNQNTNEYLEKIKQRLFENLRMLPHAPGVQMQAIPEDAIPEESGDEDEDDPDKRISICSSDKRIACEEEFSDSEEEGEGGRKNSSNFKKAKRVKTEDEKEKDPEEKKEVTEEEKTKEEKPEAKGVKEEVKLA

As to `COC(=O)N1CC(C(=O)N(Cc2cn3ccc(-c4nnc(C(F)F)o4)cc3n2)c2ccccc2)C1` [Compound 4174, methyl 3-(((7-(5-(difluoromethyl)-1,3,4-oxadiazol-2-yl)imidazo[1,2-a]pyridin-2-yl)methyl)(phenyl)carbamoyl) azetidine-1-carboxylate], the IC50 in assay [1] is over 50000 nM. Besides, in assay [2], the “HDAC6 Selectivity (fold)” value is 168 fold and the IC50 came out at 298 nM.
On to `Fc1ccc(Cc2cn3ccc(-c4nnc(C(F)F)o4)cc3n2)c(F)c1` [Compound 3588, 2-(2-(2,4-difluorobenzyl)imidazo[1,2-a]pyridin-7-yl)-5-(difluoromethyl)-1,3,4-oxadiazole], for which the IC50 in assay [1] was over 50000 nM. In addition, in assay [2], the “HDAC6 Selectivity (fold)” value turned out to be 205 fold and the IC50 amounted to 244 nM.
Regarding `CS(=O)(=O)N1CCC(C(=O)N(Cc2cn3ccc(-c4nnc(C(F)F)o4)cc3n2)c2ccccc2)CC1` [Compound 4128, N-((7-(5-(difluoromethyl)-1,3,4-oxadiazol-2-yl)imidazo[1,2-a]pyridin-2-yl)methyl)-1-(methylsulfonyl)-N-phenylpiperidine-4-carboxamide], the figures for the 50% inhibitory concentration (IC50) in assay [1] and in assay [2] were over 50000 nM and 315 nM, respectively. Further, in assay [2], the “HDAC6 Selectivity (fold)” value is given as 159 fold.
With `O=C(N1CCN(C2CCC2)CC1)N(Cc1cn2ccc(-c3nnc(C(F)F)o3)cc2n1)c1cccc(F)c1` [Compound 4087, 4-cyclobutyl-N-((7-(5-(difluoromethyl)-1,3,4-oxadiazol-2-yl)imidazo[1,2-a]pyridin-2-yl)methyl)-N-(3-fluorophenyl)piperazine-1-carboxamide], the IC50 in assay [1] was over 50000 nM; in assay [2], 233 nM. In assay [2], the “HDAC6 Selectivity (fold)” value is 214 fold.
As to `O=C(N1CCN(C2COC2)CC1)N(Cc1cn2ccc(-c3nnc(C(F)F)o3)cc2n1)c1cccc(F)c1` [Compound 4088, N-((7-(5-(difluoromethyl)-1,3,4-oxadiazol-2-yl)imidazo[1,2-a]pyridin-2-yl)methyl)-N-(3-fluorophenyl)-4-(oxetan-3-yl)piperazine-1-carboxamide], the values for the concentration for half-maximal inhibition (IC50) in assay [1] and in assay [2] were over 50000 nM and 320 nM, respectively. The “HDAC6 Selectivity (fold)” value in assay [2] was 156 fold.
`CN(C)C(=O)N1CC(C(=O)N(Cc2cn3ccc(-c4nnc(C(F)F)o4)cc3n2)c2ccccc2)C1` [Compound 4175, N3-((7-(5-(difluoromethyl)-1,3,4-oxadiazol-2-yl)imidazo[1,2-a]pyridin-2-yl)methyl)-N1,N1-dimethyl-N3-phenylazetidine-1,3-dicarboxamide]: the IC50 in assay [1] was over 50000 nM. For the same compound, in assay [2], the “HDAC6 Selectivity (fold)” value is 131 fold and the IC50 was found to be 381 nM.
With `CS(=O)(=O)N1CCC(C(=O)N(Cc2cn3ccc(-c4nnc(C(F)F)o4)cc3n2)c2cccc(F)c2)CC1` [Compound 4153, N-((7-(5-(difluoromethyl)-1,3,4-oxadiazol-2-yl)imidazo[1,2-a]pyridin-2-yl)methyl)-N-(3-fluorophenyl)-1-(methylsulfonyl)piperidine-4-carboxamide], the IC50 was over 50000 nM in assay [1] and 138 nM in assay [2]. In addition, the “HDAC6 Selectivity (fold)” value in assay [2] amounted to 363 fold.
With `CN1CC2(C1)CN(C(=O)N(Cc1cn3ccc(-c4nnc(C(F)F)o4)cc3n1)c1ccccc1)C2` [Compound 4625, N-((7-(5-(difluoromethyl)-1,3,4-oxadiazol-2-yl)imidazo[1,2-a]pyridin-2-yl)methyl)-6-methyl-N-phenyl-2,6-diazaspiro[3.3]heptan-2-carboxamide], in assay [1], the IC50 is over 50000 nM. Further, in assay [2], the “HDAC6 Selectivity (fold)” value is given as 510 fold and the IC50 stood at 98 nM.
For `CS(=O)(=O)N1CC(C(=O)N(Cc2cn3ccc(-c4nnc(C(F)F)o4)cc3n2)c2ccccc2)C1` [Compound 4173, N-((7-(5-(difluoromethyl)-1,3,4-oxadiazol-2-yl)imidazo[1,2-a]pyridin-2-yl)methyl)-1-(methylsulfonyl)-N-phenylazetidine-3-carboxamide] the same measures were over 50000 nM, 160 fold and 312 nM.

Values taken from patent US12522601B2, “1,3,4-oxadiazole derivative compounds as histone deacetylase 6 inhibitor, and the pharmaceutical composition comprising the same” (CHONG KUN DANG PHARMACEUTICAL CORP., priority 2020, dated 2026).
